In ChEMBL document CHEMBL6121041, “Design and synthesis of isatin derivative payloaded peptide-drug conjugate as tubulin inhibitor against colorectal cancer” (Eur J Med Chem, 2025):
Residues, ends and D or L forms follow the SMILES beside them.

Columns and labels:
HepG2 = assay: Antiproliferative activity against human HepG2 cells assessed as reduction in cell viability incubated for 48 hrs by MTT assay; format: functional, cell-based; settings: HepG2, 48 h
K562 = assay: Antiproliferative activity against human K562 cells assessed as reduction in cell viability incubated for 48 hrs by MTT assay; format: functional, cell-based; settings: K562, 48 h
[1] = Cytotoxicity against HK-2 cells assessed as reduction in cell viability incubated for 48 hrs by MTT assay; format: toxicity, cell-based; settings: human
786-0 = assay: Antiproliferative activity against human 786-0 cells assessed as reduction in cell viability incubated for 48 hrs by MTT assay; format: functional, cell-based; settings: 786-0, 48 h
HCC827 = assay: Antiproliferative activity against human HCC827 cells assessed as reduction in cell viability incubated for 48 hrs by MTT assay; format: functional, cell-based; settings: HCC827, 48 h
HCT-116 = assay: Antiproliferative activity against human HCT-116 cells assessed as reduction in cell viability incubated for 48 hrs by MTT assay; format: functional, cell-based; settings: HCT-116, 48 h
MGC-803 = assay: Antiproliferative activity against human MGC-803 cells assessed as reduction in cell viability incubated for 48 hrs by MTT assay; format: functional, cell-based; settings: MGC-803, 48 h
[2] = Cytotoxicity against HUVEC cells assessed as reduction in cell viability incubated for 48 hrs by MTT assay; format: toxicity, cell-based; settings: human

Structure (SMILES)	IC50 (HepG2) [µM]	IC50 (K562) [µM]	IC50 (786-0) [µM]	IC50 (HCC827) [µM]	IC50 (HCT-116) [µM]	IC50 (MGC-803) [µM]	IC50 at 48 h [1] [µM]	IC50 at 48 h [2] [µM]
CCN(CC)CCNC(=O)c1c(C)[nH]c(/C=C2\C(=O)Nc3ccc(F)cc32)c1C [SUNITINIB]	4.7	1.25	9.02	1.34	2.23	8.25	6.88	7.7
CC(=O)N[C@@H](CCCCN)C(=O)N1CCC[C@H]1C(=O)N[C@@H](CO)C(=O)N[C@@H](CO)C(=O)N1CCC[C@H]1C(=O)N1CCC[C@H]1C(=O)N[C@@H](CCC(=O)O)C(=O)N[C@@H](CCC(=O)O)C(N)=O (Ac-KPSSPPEE-NH2)					> 100			> 100
COc1ccc(CN2C(=O)C(=O)c3cc(-c4ccc(C(=O)O)cc4)ccc32)cc1	> 100	> 100	87.6	4.15	18.7	91.1	30.9	34.7

The next compounds have a lower IC50 (HCT-116) than those just listed; values first:

IC50 (HepG2) [µM]	IC50 (K562) [µM]	IC50 (786-0) [µM]	IC50 (HCC827) [µM]	IC50 (HCT-116) [µM]	IC50 (MGC-803) [µM]	Structure (SMILES)	IC50 at 48 h [1] [µM]	IC50 at 48 h [2] [µM]
71	0.5	30.8	4.15	0.728	76.5	COc1ccc(CN2C(=O)C(=O)c3cc(-c4ccc(SC)cc4)ccc32)cc1	13.4	25
> 100	0.77	33.3	24.2	0.349	27	COc1ccc(CN2C(=O)C(=O)c3cc(-c4ccc(CBr)cc4)ccc32)cc1	1.99	16
> 100	2.07	138	12	1.6	86.2	COC(=O)c1ccc(-c2ccc3c(c2)C(=O)C(=O)N3Cc2ccc(OC)cc2)cc1	8.54	81.7
6.78	1.14	50.5	29.3	2.02	> 100	COc1ccc(CN2C(=O)C(=O)c3cc(-c4ccc(COC(C)=O)cc4)ccc32)cc1	9.02	34.7
